This is an account of results in patent publication EP0568635B1, “IMPROVED GLYPHOSATE FORMULATIONS” (MONSANTO COMPANY, priority 1991, dated 1992).

This assay deals with Johnsongrass. In words: Greenhouse bioassay test of herbicidal activity, pot-grown weeds sprayed with a track sprayer. It is filed as in vivo. The conditions noted are these: mean of four rates (1/4, 1/2, 3/4 and 1 pound glyphosate/acre; 0.28, 0.56, 0.84 and 1.12 kg/ha), 4 weeks after treatment, 0.25 % ethoxylated amine surfactant in all spray solutions. How it is done: The results of the bioassay test of the Example 2 formulation are shown below. Roundup herbicide was used as a comparative of the prior art.
In all of the greenhouse bioassay tests provided in this specification, pot-grown weed species were sprayed with aqueous solutions of the glyphosate WSP formulations using a track sprayer calibrated to apply about 20 gallons/acre (187 liters/hectare) at about 30 psi ([…]).
WSP formulations were prepared without Witconate surfactant. The surfactant was tank mixed into the spray solutions for bioassays.

On to `CC(C)N.O=C(O)CNCP(=O)(O)O` [Isopropylamine salt of glyphosate], for which the “% INHIBITION” value was determined as 55.2%.
